Read-outs that look alike come from different tables or passages of the source.
How the values were obtained:
[1] = system: human gastric cancer cell MKN45; experiment: CCK-8 cell proliferation inhibition, MKN45; format: cell-based; conditions: MKN-45, 72 h, read-out: IC50 MKN45
Description: (§1) Take more than 90% of live cells for experiments. Cell proliferation inhibition test uses EnoGeneCell™ Counting Kit-8 (CCK-8) cell viability detection kit. Cells are digested and counted to make a cell suspension with a concentration of 1×10^5 cells/mL, 100 μL of cell suspension (1×10^4 cells per well) was added to each well of a 96-well plate; Incubate in a 5% CO2 incubator for 24 hours; add 100 μL of the corresponding drug-containing culture medium to each well, and set a negative control group, a vehicle control group, and a positive control group, with 5 replicates in each group; place the 96-well plate at 37° C.

[2] = system: human gastric cancer cell MGC-803; experiment: CCK-8 cell proliferation inhibition, MGC-803; format: cell-based; conditions: MGC-803, 72 h, read-out: IC50 MGC803
Description: as §1

[3] = system: human lung cancer cell A549; experiment: CCK-8 cell proliferation inhibition, A549; format: cell-based; conditions: read-out: IC50 A549
Description: as §1

[4] = system: human colon cancer cell HCT-116; experiment: CCK-8 cell proliferation inhibition, HCT-116; format: cell-based; conditions: Homo sapiens, HCT-116, 72 h, read-out: IC50 HTC116
Description: as §1

[5] = system: human liver cancer cell HepG2; experiment: CCK-8 cell proliferation inhibition, HepG2; format: cell-based; conditions: Homo sapiens, read-out: IC50 HepG2
Description: as §1

[6] = system: human cervical cancer cell HeLa; experiment: CCK-8 cell proliferation inhibition, HeLa; format: cell-based; conditions: Homo sapiens, HeLa, 72 h, read-out: IC50 Hela
Description: as §1

Arylsulfatase = Arylsulfatase activity assay in vitro; format: biochemical
Description: Weigh an appropriate amount of the test compound and dissolve it in dimethyl sulfoxide. Dilute it with Tris-HCl buffer for 2, 5, 10, 20, 50, 100, 200, 500, 1000, 2000, 5000, and 10,000 times. Add another dilution gradient to the sample. Arylsulfatase and potassium p-nitrophenyl sulfate are directly dissolved in Tris-HCl buffer. 40 μL of the test compound, 50 μL of arylsulfatase and 50 μL of potassium p-nitrobenzene sulfate were added to a 96-well plate for reaction. A blank control without enzymes and a standard control without test compounds are used. The volume is made up with Tris-HCl buffer. 405 nm detection in the microplate reader, each sample is measured for 40 times, and the interval is 30 s. The representative time node within the time period with good linearity of the absorbance value are selected for data analysis. The measured absorbance value are subtracted from the background value of the blank control and the initial value when the reaction time are 0. For comparison, calculate the inhibition rate at different concentrations, and use the built-in forecast function of excel to predict the IC50 value.

Tubulin = Tubulin polymerization activity test; format: biochemical; conditions: tubulin 4.8 mg/ml, 37° C., 340 nm; read-out: IC50 (Table 3, tubulin polymerization test)
Description: Tubulin (4.8 mg/ml) protein was mixed with the test compound in a PEM buffer (100 mM PIPES, 1 mM MgCl2 and 1 mM EGTA) containing 1 mM GTP and 5% glycerol. A SPECTRA MAX 190 (Molecular Device) spectrophotometer was used to monitor the microtubule polymerization at 37° C. by light scattering at 340 nm, and the microtubule polymerization was calculated from the absorbance value. Each sample was tested three times at ten different concentrations.

[7] = p-nitrophenyl sulfate substrate, 405 nm, read-out: IC50 sulfatase

Row | SMILES | IC50 ([1]; CCK-8, 72 h) [µM] | IC50 ([2]; CCK-8, 72 h) [µM] | IC50 ([3]; A549, CCK-8, 72 h) [µM] | IC50 ([4]; CCK-8, 72 h) [µM] | IC50 ([5]; HepG2, 72 h, CCK-8, 72 h) [µM] | IC50 ([6]; CCK-8, 72 h) [µM] | IC50 (Arylsulfatase; [7]) [µM] | IC50 (Tubulin) [µM] | IC50 ([5]; HepG2, running text) [µM] | IC50 [1] [µM] | IC50 [2] [µM] | IC50 ([3]; A549, 72 h) [µM] | IC50 [4] [µM] | melting point [°C] | IC50 ([5]; HepG2, 72 h) [µM] | IC50 [6] [µM] | IC50 (Arylsulfatase; read-out: sulfatase inhibitory activity) [µM]
1 | COc1ccc(/C=C\c2cc(OC)c(OC)c(OC)c2)cc1O [CA-4, (Z)-3,4,5-trimethoxy-3′-hydroxy-4′-methoxystilbene, reference compound] | 3.44 | 1.76 | 5.99 | 9 | 16 | 11.3 |  |  |  |  |  |  |  |  |  |  | 
2 | COc1ccc(/C=C/c2cc(OC)c(OC)c(OC)c2)cc1OS(N)(=O)=O [Compound A1-2, (E)-3,4,5-trimethoxy-4′-methoxy-3′-sulfamate stilbene] | 10.5 | 2.98 | 11.4 | 1.57 | 0.87 | 4.5 | 12.9 | 55.7 | < 1 |  |  |  |  |  |  |  | 
3 | COc1ccc(CCc2cc(OC)c(OC)c(OC)c2)cc1OS(N)(=O)=O [Compound A1-3, 3,4,5-trimethoxy-4′-methoxy-3′-sulfamate diphenylethane] | 11.9 | 3.61 | 15.8 | 3.08 | 1.14 | 9.04 |  | 72.6 |  |  |  |  |  |  |  |  | 
4 | CNS(=O)(=O)Oc1cc(/C=C\c2cc(OC)c(OC)c(OC)c2)ccc1OC [Compound A1-4, (Z)-3,4,5-trimethoxy-4′-methoxy-3′-N-methylsulfamate stilbene] |  |  |  |  |  |  |  |  |  | 0.369 | 5.05 | 0.269 | 16.8 | 118.4 to 121.6 | 0.263 | 0.317 | 
5 | COc1ccc(/C=C\c2cc(OC)c(OC)c(OC)c2)cc1OS(=O)(=O)N(C)C [Compound A1-5, (Z)-3,4,5-trimethoxy-4′-methoxy-3′-N,N-dimethylsulfamate stilbene] |  |  |  |  |  |  |  | 3.1 |  | 7.14 | 8.95 | 0.987 | 0.366 | 102.7 to 105.6 | 9.96 | 14.3 | 
6 | CCOc1ccc(/C=C/c2cc(OC)c(OC)c(OC)c2)cc1OS(N)(=O)=O [Compound A2-2, (E)-3,4,5-trimethoxy-4′-ethoxy-3′-sulfamate stilbene] | 8.05 | 7.63 | 4.86 | 9.12 | 2.63 | 5.64 |  |  |  |  |  |  |  |  |  |  | 
7 | CCOc1ccc(CCc2cc(OC)c(OC)c(OC)c2)cc1OS(N)(=O)=O [Compound A2-3, 3,4,5-trimethoxy-4′-ethoxy-3′-sulfamate diphenylethane] | 7.67 | 3.59 | 1.6 | 10.2 | 3.65 | 2.93 |  |  |  |  |  |  |  | 122.3 to 126.7 |  |  | 
8 | COc1cc(/C=C\c2ccc(OC(F)F)c(OS(N)(=O)=O)c2)cc(OC)c1OC [Compound A3-1, (Z)-3,4,5-trimethoxy-4′-difluoromethoxy-3′-sulfamate stilbene] |  |  |  |  |  |  | 4.64 | 1.8 |  | 9 | 12.5 | 5.21 | 9.11 | 161.6 to 162.9 | 4.8 | 7.82 | 
9 | COc1cc(/C=C/c2ccc(OC(F)F)c(OS(N)(=O)=O)c2)cc(OC)c1OC [Compound A3-2, (E)-3,4,5-trimethoxy-4′-difluoromethoxy-3′-sulfamate stilbene] |  |  |  |  |  |  |  | 12.5 |  | 9.24 | 13.8 | 28.2 | 12.8 | 145.5 to 148.6 | 5.54 | 8.42 | 
10 | COc1cc(CCc2ccc(OC(F)F)c(OS(N)(=O)=O)c2)cc(OC)c1OC [Compound A3-3] | 23.3 | 71.4 |  | 26.5 | 15.9 | 35.6 |  | 86.2 |  |  |  |  |  | 142.5 to 145.8 |  |  | 
11 | COc1cc(/C=C\c2cccc(OS(N)(=O)=O)c2)cc(OC)c1OC [Compound A4-1, (Z)-3,4,5-trimethoxy-3′-sulfamate stilbene] | 8.53 | 15.3 | 11 | 9.5 | 9.36 | 16.3 | 0.47 |  |  |  |  |  |  | 107.1 to 110.6 |  |  | < 0.5
12 | COc1cc(/C=C/c2cccc(OS(N)(=O)=O)c2)cc(OC)c1OC [Compound A4-2, (E)-3,4,5-trimethoxy-3′-sulfamate stilbene] | 27 | 25 | 21.5 | 40.3 | 11.8 | 19 |  |  |  |  |  |  |  | 136.3 to 139.7 |  |  | 
13 | COc1cc(CCc2cccc(OS(N)(=O)=O)c2)cc(OC)c1OC [Compound A4-3, 3,4,5-trimethoxy-3′-sulfamate diphenylethane] | 17.6 | 25.7 | 25.8 | 52.5 | 12 | 27.1 |  |  |  |  |  |  |  | 108.4 to 120.8 |  |  | 
14 | COc1ccc(/C=C\c2cc(OC)c(OC)c(OC)c2)cc1NS(N)(=O)=O [Compound A5-1, (Z)-3,4,5-trimethoxy-4′-methoxy-3′-aminosulfamate stilbene] | 0.5 | 9.56 | 0.299 | 3.29 | 0.752 | 0.272 |  |  |  |  |  |  |  | 143.3 to 146.7 |  |  | 
15 | COc1ccc(/C=C/c2cc(OC)c(OC)c(OC)c2)cc1NS(N)(=O)=O [Compound A5-2, (E)-3,4,5-trimethoxy-4′-methoxy-3′-aminosulfamate stilbene] | 6.19 | 18.9 | 7.42 | 8.64 | 7.53 | 0.38 |  |  |  |  |  |  |  | 157.9 to 161.1 |  |  | 
16 | COc1ccc(CCc2cc(OC)c(OC)c(OC)c2)cc1NS(N)(=O)=O [Compound A5-3, 3,4,5-trimethoxy-4′-methoxy-3′-aminosulfamate diphenylethane] | 8.21 | 73.9 | 12 | 30.6 | 8.1 | 2.93 |  |  |  |  |  |  |  | 122.5 to 126.5 |  |  | 
17 | C[C@]12CC[C@@H]3c4ccc(OS(N)(=O)=O)cc4CC[C@H]3[C@@H]1CCC2=O [EMATE, 3-(sulfamoyloxy)-estr-1,3,5 (10)-triene-17-one, reference compound] |  |  |  |  |  |  | 5.01 | 25.9 |  |  |  |  |  |  |  |  | 
18 | COc1ccc(CCc2cc(OC)c(OC)c(OC)c2)cc1O [Erianin, 3,4,5-trimethoxy-3′-hydroxy-4′-methoxydiphenylethane, reference compound] | 0.425 | 0.449 | 0.22 | 6.29 | 0.237 | 0.207 |  |  |  |  |  |  |  |  |  |  | 
